Like-named read-outs stand apart in the source and are kept apart here.
Columns and labels:
[1] = test system: platelet plasma (platelet-rich plasma of rabbit); assay: Platelet aggregation inhibitory action (Test Example 1), rabbit platelet plasma, aggregation by ADP, PAF, AA or collagen; type: cell-based
Description: For evaluating the platelet aggregation inhibitory action of the present compounds, platelet plasma containing 5×10^5 of platelets in 1 μl of plasma was prepared by appropriately mixing platelet-rich plasma (PRP) of rabbit with platelet-poor plasma (PPP). By using the platelet plasma, the present compounds were measured on 50% inhibitory efficacy (IC 50) against each of platelet aggregation accelerators, 10 μM of adenosine diphosphate (ADP), 0.01 μg/ml of platelet activation factor (PAF), 300 μM of arachidonic acid (AA) and 30 μg/ml of collagen.

blood pressure = assay: Blood pressure-reducing action (Test Example 2); type: in vivo, dog; conditions: dogs, i.v., dissolved in dimethylsulfoxide; for ED20: Canis lupus familiaris, iv, read-out: ED20, dose effective to reduce the blood pressure by 20%
Description: In order to evaluate the blood pressure-reducing action of the present compounds, each of the compounds was dissolved in dimethylsulfoxide and administered intravenously to dogs. After administration, a dose of the compound effective to reduce the blood pressure by 20% (ED20 :mg/Kg) was measured.

carotid blood-flow = assay: Blood-flow increasing action (Test Example 3), carotid; type: in vivo, dog; conditions: Canis lupus familiaris, iv; dogs, i.v., dissolved in dimethylsulfoxide; read-out: Carotid blood-flow increasing action (ED30), dose required to increase the blood-flow in the carotid by 30%
Description: In order to evaluate the blood-flow increasing action of the present compounds, each of the compounds was dissolved in dimethylsulfoxide and administered intravenously to dogs. After administration, a dose required to increase the blood-flow in the carotid by 30% was determined.

[2] = Acute toxicity test (Test Example 4); conditions: in vivo; oral administration to mouse, suspended in carboxymethyl cellulose; read-out: LD50, 50% lethal dose
Description: Each of the present compounds suspended in a carboxymethyl cellulose was administered orally to a mouse and a 50% lethal dose (LD50) was measured. There was not observed any dead mouse even with the administration as high as 2,000 mg/Kg.

[3] = Oryctolagus cuniculus, 0.01 μg/ml platelet activation factor (PAF), read-out: 50% inhibitory efficacy (IC 50), PAF, Coagulant (ID50)
[4] = Oryctolagus cuniculus, 10 μM adenosine diphosphate (ADP), read-out: 50% inhibitory efficacy (IC 50), ADP, Coagulant (ID50)
[5] = Oryctolagus cuniculus, 30 μg/ml collagen, read-out: 50% inhibitory efficacy (IC 50), Collagen, Coagulant (ID50)
[6] = Oryctolagus cuniculus, 300 μM arachidonic acid (AA), read-out: 50% inhibitory efficacy (IC 50), AA, Coagulant (ID50)

| Compound | IC50 ([1]; 0.01 μg/ml platelet activation factor (PAF), read-out: 50% inhibitory efficacy (IC 50), PAF, Coagulant (ID50)) [µM] | IC50 ([1]; 10 μM adenosine diphosphate (ADP), read-out: 50% inhibitory efficacy (IC 50), ADP, Coagulant (ID50)) [µM] | IC50 ([1]; 30 μg/ml collagen, read-out: 50% inhibitory efficacy (IC 50), Collagen, Coagulant (ID50)) [µM] | IC50 ([1]; 300 μM arachidonic acid (AA), read-out: 50% inhibitory efficacy (IC 50), AA, Coagulant (ID50)) [µM] | IC50 [1, 3] [µM] | IC50 [1, 4] [µM] | IC50 [1, 5] [µM] | IC50 [1, 6] [µM] | ED20, dose effective to reduce the blood pressure by 20% (blood pressure) [mg/kg] | ED20 (blood pressure) [mg/kg] | ED30 (carotid blood-flow) [mg/kg] | LD50 [2] [mg/kg] |
| --- | --- | --- | --- | --- | --- | --- | --- | --- | --- | --- | --- | --- |
| 3,3-dimethyl-1-hydroxy-3H-pyrano [3,2-f]quinoline-8(7H)-one [Preparation Example 9] | 45 | 30 | 30 | 21 |  |  |  |  | 1.5 |  |  |  |
| CC1CCc2c(ccc3[nH]c(=O)ccc23)O1 (stereo not shown) [Preparation Example 1, 3-methyl-1,2-dihydro-3H-pyrano[3,2-f]quinoline-8(7H)-one] |  |  |  |  | 8 | 5 | 5 | 3 |  | 1.2 |  |  |
| CC1(C)CCc2c(ccc3[nH]c(=O)ccc23)O1 [Preparation Example 2, 3,3-dimethyl-1,2-dihydro-3H-pyrano[3,2-f]quinoline-8(7H)-one] |  |  |  |  | 6 | 5 | 7 | 5 |  | 1.2 | 0.009 |  |
| O=c1ccc2c3c(ccc2[nH]1)OCCC3 [Preparation Example 5, 1,2,3,3-tetrahydro-3H-pyrano-[3,2-f]quinoline-8(7H)-one] |  |  |  |  | 8 | 3 | 6 | 4 |  | 1.6 | 0.0094 | ≥ 2000 |
| O=c1ccc2c3c(ccc2[nH]1)OCC(O)C3 (stereo not shown) [Preparation Example 6, 2-hydroxy-1,2,3,3-tetrahydro-3H-pyrano [3,2-f]quinoline-8(7H)-one] |  |  |  |  | 47 | 30 | 25 | 21 |  | 1.5 | 0.19 | ≥ 2000 |

Second part, led by results:

| IC50 ([1]; 0.01 μg/ml platelet activation factor (PAF), read-out: 50% inhibitory efficacy (IC 50), PAF, Coagulant (ID50)) [µM] | IC50 ([1]; 10 μM adenosine diphosphate (ADP), read-out: 50% inhibitory efficacy (IC 50), ADP, Coagulant (ID50)) [µM] | IC50 ([1]; 30 μg/ml collagen, read-out: 50% inhibitory efficacy (IC 50), Collagen, Coagulant (ID50)) [µM] | IC50 ([1]; 300 μM arachidonic acid (AA), read-out: 50% inhibitory efficacy (IC 50), AA, Coagulant (ID50)) [µM] | IC50 [1, 3] [µM] | IC50 [1, 4] [µM] | IC50 [1, 5] [µM] | IC50 [1, 6] [µM] | Compound | ED20, dose effective to reduce the blood pressure by 20% (blood pressure) [mg/kg] | ED20 (blood pressure) [mg/kg] | ED30 (carotid blood-flow) [mg/kg] | LD50 [2] [mg/kg] |
| --- | --- | --- | --- | --- | --- | --- | --- | --- | --- | --- | --- | --- |
|  |  |  |  | 22 | 20 | 21 | 16 | CC1(C)CCc2c(ccc3c2CCC(=O)N3)O1 [Preparation Example 3, 3,3-dimethyl-1,2,9,10-tetrahydro-3H-pyrano [3,2-f]quinoline-8(7H)-one] |  | 0.4 | 0.03 |  |
|  |  |  |  | 25 | 30 | 20 | 18 | O=c1ccc2c3c(ccc2[nH]1)OCC=C3 [Preparation Example 4, 3,3-dihydro-3H-pyrano[3,2-f]quinoline-8(7H)-one] |  | 0.5 | 0.066 |  |
|  |  |  |  | 21 | 20 | 13 | 13 | CC1(C)Oc2ccc3[nH]c(=O)ccc3c2CC1O (stereo not shown) [Preparation Example 7, 3,3-dimethyl-1,2-hydroxy-1,2-dihydro-3 H-pyrano[3,2-f]quinoline-8(7H)-one] |  | 1.6 |  |  |
|  |  |  |  | 25 | 20 | 18 | 18 | O=c1ccc2c3c(ccc2[nH]1)OCCC3O (stereo not shown) [Preparation Example 8, 1-hydroxy-1,2,3,3-tetrahydro-3H-pyrano[3,2-f]quinoline-8(7H)-one] |  | 1.8 |  |  |

Source: patent publication US5093339A, “Pyrano[f]quinoline derivatives and pharmaceutical compositions containing the same” (Kodama Kabushiki Kaisha, priority 1988, dated 1992)
